One assay deals with T1, IL-17A/A (Homo sapiens, UniProt Q16552).
T1 construct: purchased Genscript Z03228
T1 sequence (Q16552 24-155): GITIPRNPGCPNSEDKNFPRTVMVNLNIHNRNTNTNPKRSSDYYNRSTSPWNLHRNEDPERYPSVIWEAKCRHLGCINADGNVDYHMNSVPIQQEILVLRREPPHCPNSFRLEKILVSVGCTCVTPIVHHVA
Put plainly: IL-17A/A HEK-Blue cell assay (SEAP reporter). The format is cell-based. The conditions noted are these: HEK-Blue IL-17A reporter cells, IL17A/A 5 ng/mL, 20 hours, SEAP read at A630; read-out: HEK-Blue IL17AA (IC50 for IL-17A/A inhibition).

The target of the next assay is T2, IL-17A/F (Homo sapiens, UniProt Q16552+Q96PD4).
T2 construct: purchased R&D Systems
T2 sequence (Q16552 24-155): T1 sequence (Q16552 24-155)
T2 sequence (Q96PD4 31-163): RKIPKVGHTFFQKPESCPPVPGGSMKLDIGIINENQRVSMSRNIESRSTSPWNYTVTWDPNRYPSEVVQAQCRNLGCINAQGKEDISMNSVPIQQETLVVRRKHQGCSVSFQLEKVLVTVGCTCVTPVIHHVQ
Description: IL-17A/F HEK-Blue cell assay (SEAP reporter). It counts as cell-based. The conditions noted are these: HEK-Blue IL-17A reporter cells, IL17A/F 5 ng/mL, 20 hours, SEAP read at A630; read-out: HEK-Blue IL17AF (IC50 for IL-17A/F inhibition).

The structures appear in SMILES notation.

As for `CCn1nccc1C(=O)N[C@H](c1cn2nc(C[C@H]3C[C@@H](C(F)(F)F)CNC3=O)c(N3CCN(C(=O)OC(C)(C)C)[C@@H](C)C3)nc2n1)C1CCC(F)(F)CC1` [Compound 238, tert-butyl (S)-4-(6-((S)-(4,4-difluorocyclohexyl)(1-ethyl-1H-pyrazole-5-carboxamido)methyl)-2-(((3R,5R)-2-oxo-5-(trifluoromethyl)piperidin-3-yl)methyl)imidazo[1,2-b][1,2,4]triazin-3-yl)-2-methylpiperazine-1-carboxylate], the IC50 on IL-17A/A and at IL-17A/F was 100 to 1000 nM throughout.

For the compound `CCn1nccc1C(=O)N[C@H](c1cn2nc(C[C@H]3C[C@@H](C(F)(F)F)CNC3=O)c(N3CCN[C@@H](C)C3)nc2n1)C1CCC(F)(F)CC1` [Compound 239, N—((S)-(4,4-difluorocyclohexyl)(3-((S)-3-methylpiperazin-1-yl)-2-(((3R,5R)-2-oxo-5-(trifluoromethyl)piperidin-3-yl)methyl)imidazo[1,2-b][1,2,4]triazin-6-yl)methyl)-1-ethyl-1H-pyrazole-5-carboxamide], the figures for the IC50 at IL-17A/A and on IL-17A/F were 100 to 1000 nM and greater than 1000 nM, respectively.

In the case of `CCn1nccc1C(=O)N[C@H](c1cn2nc(C[C@H]3C[C@@H](C(F)(F)F)CNC3=O)c(C3CCOC4(C3)CN(C(=O)OC(C)(C)C)C4)nc2n1)C1CCC(F)(F)CC1` (stereo partly drawn) [Compound 240, tert-butyl 8-(6-((S)-(4,4-difluorocyclohexyl)(1-ethyl-1H-pyrazole-5-carboxamido)methyl)-2-(((3R,5R)-2-oxo-5-(trifluoromethyl)piperidin-3-yl)methyl)imidazo[1,2-b][1,2,4]triazin-3-yl)-5-oxa-2-azaspiro[3.5]nonane-2-carboxylate], the IC50 at IL-17A/A and on IL-17A/F was 100 to 1000 nM in each case.

In the case of `CCn1nccc1C(=O)N[C@H](c1cn2nc(C[C@H]3C[C@@H](C(F)(F)F)CNC3=O)c(N3C[C@@H](C)O[C@H](C)C3)nc2n1)C1CCC(F)(F)CC1` [Compound 241, N—((S)-(4,4-difluorocyclohexyl)(3-((2R,6R)-2,6-dimethylmorpholino)-2-(((3R,5R)-2-oxo-5-(trifluoromethyl)piperidin-3-yl)methyl)imidazo[1,2-b][1,2,4]triazin-6-yl)methyl)-1-ethyl-1H-pyrazole-5-carboxamide], the IC50 on IL-17A/A and at IL-17A/F was less than 100 nM in each case.

Regarding `CCn1nccc1C(=O)N[C@H](c1cn2nc(C[C@H]3C[C@@H](C(F)(F)F)CNC3=O)c(N3CCN(C(C)(C)C)CC3)nc2n1)C1CCC(F)(F)CC1` [Compound 242, N—((S)-(3-(4-(tert-butyl)piperazin-1-yl)-2-(((3R,5R)-2-oxo-5-(trifluoromethyl)piperidin-3-yl)methyl)imidazo[1,2-b][1,2,4]triazin-6-yl)(4,4-difluorocyclohexyl)methyl)-1-ethyl-1H-pyrazole-5-carboxamide], the IC50 is less than 100 nM at IL-17A/A and 100 to 1000 nM on IL-17A/F.

Regarding `O=C(N[C@H](c1cn2nc(C[C@H]3C[C@@H](C(F)(F)F)CNC3=O)c(C3CCS(=O)(=O)CC3)nc2n1)C1CCC(F)(F)CC1)c1nonc1C1CC1` [Compound 243, 4-cyclopropyl-N—((S)-(4,4-difluorocyclohexyl)(3-(1,1-dioxidotetrahydro-2H-thiopyran-4-yl)-2-(((3R,5R)-2-oxo-5-(trifluoromethyl)piperidin-3-yl)methyl)imidazo[1,2-b][1,2,4]triazin-6-yl)methyl)-1,2,5-oxadiazole-3-carboxamide], the IC50 is less than 100 nM on IL-17A/A and greater than 1000 nM at IL-17A/F.

For `CCn1nccc1C(=O)N[C@H](c1cn2nc(C[C@H]3C[C@@H](C(F)(F)F)CNC3=O)c(N3CCN(CC4CC4)CC3)nc2n1)C1CCC(F)(F)CC1` [Compound 244, N—((S)-(3-(4-(cyclopropylmethyl)piperazin-1-yl)-2-(((3R,5R)-2-oxo-5-(trifluoromethyl)piperidin-3-yl)methyl)imidazo[1,2-b][1,2,4]triazin-6-yl)(4,4-difluorocyclohexyl)methyl)-1-ethyl-1H-pyrazole-5-carboxamide], the IC50 on IL-17A/A was less than 100 nM; on IL-17A/F, 100 to 1000 nM.

Regarding `CCn1nccc1C(=O)N[C@H](c1cn2nc(C[C@H]3C[C@@H](C(F)(F)F)CNC3=O)c(N3CCCOCC3)nc2n1)C1CCC(F)(F)CC1` [Compound 245, N—((S)-(3-(1,4-oxazepan-4-yl)-2-(((3R,5R)-2-oxo-5-(trifluoromethyl)piperidin-3-yl)methyl)imidazo[1,2-b][1,2,4]triazin-6-yl)(4,4-difluorocyclohexyl)methyl)-1-ethyl-1H-pyrazole-5-carboxamide], the IC50 on IL-17A/A is less than 100 nM; at IL-17A/F, 100 to 1000 nM.

Take `Cc1nccnc1C(=O)N[C@H](c1cn2nc(C[C@H]3C[C@@H](C(F)(F)F)CNC3=O)c(C3CCOCC3)nc2n1)C1CCC(F)(F)CC1` [Compound 246, N—((S)-(4,4-difluorocyclohexyl)(2-(((3R,5R)-2-oxo-5-(trifluoromethyl)piperidin-3-yl)methyl)-3-(tetrahydro-2H-pyran-4-yl)imidazo[1,2-b][1,2,4]triazin-6-yl)methyl)-3-methylpyrazine-2-carboxamide]: the results for the IC50 at IL-17A/A and on IL-17A/F were 100 to 1000 nM and greater than 1000 nM, respectively.

As for `CCn1nccc1C(=O)N[C@H](c1cn2nc(C[C@H]3C[C@@H](C(F)(F)F)CNC3=O)c(N3C[C@@H](C)O[C@@H](C)C3)nc2n1)C1CCC(F)(F)CC1` [Compound 247, N—((S)-(4,4-difluorocyclohexyl)(3-((2R,6S)-2,6-dimethylmorpholino)-2-(((3R,5R)-2-oxo-5-(trifluoromethyl)piperidin-3-yl)methyl)imidazo[1,2-b][1,2,4]triazin-6-yl)methyl)-1-ethyl-1H-pyrazole-5-carboxamide], the IC50 on IL-17A/A was less than 100 nM; on IL-17A/F, 100 to 1000 nM.

With `CCn1ncnc1C(=O)N[C@H](c1cn2nc(C[C@H]3C[C@@H](C(F)(F)F)CNC3=O)c(C3CCS(=O)(=O)CC3)nc2n1)C1CCC(F)(F)CC1` [Compound 248, N—((S)-(4,4-difluorocyclohexyl)(3-(1,1-dioxidotetrahydro-2H-thiopyran-4-yl)-2-(((3R,5R)-2-oxo-5-(trifluoromethyl)piperidin-3-yl)methyl)imidazo[1,2-b][1,2,4]triazin-6-yl)methyl)-1-ethyl-1H-1,2,4-triazole-5-carboxamide], the IC50 at IL-17A/A was less than 100 nM; on IL-17A/F, greater than 1000 nM.

On to `O=C(N[C@H](c1cn2nc(C[C@H]3C[C@@H](C(F)(F)F)CNC3=O)c([C@H]3CCCOC3)nc2n1)[C@@H]1CCCC(F)(F)C1)c1nonc1C1CC1` [Compound 249], for which the figures for the IC50 on IL-17A/A and on IL-17A/F were less than 100 nM and 100 to 1000 nM, respectively.

As to `CCn1nccc1C(=O)N[C@H](c1cn2nc(C[C@H]3C[C@@H](C(F)(F)F)CNC3=O)c(C34CCOC(C3)C4)nc2n1)C1CCC(F)(F)CC1` [Compound 250, N—((S)-(3-(2-oxabicyclo[3.1.1]heptan-5-yl)-2-(((3R,5R)-2-oxo-5-(trifluoromethyl)piperidin-3-yl)methyl)imidazo[1,2-b][1,2,4]triazin-6-yl)(4,4-difluorocyclohexyl)methyl)-1-ethyl-1H-pyrazole-5-carboxamide], the IC50 at IL-17A/A is less than 100 nM; at IL-17A/F, 100 to 1000 nM.

For the compound `CCn1nccc1C(=O)N[C@H](c1cn2nc(C[C@H]3C[C@@H](C(F)(F)F)CNC3=O)c(C34COCC(C3)C4)nc2n1)C1CCC(F)(F)CC1` [Compound 253, N—((S)-(3-(3-oxabicyclo[3.1.1]heptan-1-yl)-2-(((3R,5R)-2-oxo-5-(trifluoromethyl)piperidin-3-yl)methyl)imidazo[1,2-b][1,2,4]triazin-6-yl)(4,4-difluorocyclohexyl)methyl)-1-ethyl-1H-pyrazole-5-carboxamide], the IC50 on IL-17A/A was less than 100 nM; at IL-17A/F it was 100 to 1000 nM.

For the compound `CCn1nccc1C(=O)N[C@H](c1cn2nc(C[C@H]3C[C@@H](C(F)(F)F)CNC3=O)c(C34CCCC(C3)OC4)nc2n1)C1CCC(F)(F)CC1` (stereo partly drawn) [Compound 254, N-((1S)-(3-(6-oxabicyclo[3.2.1]octan-1-yl)-2-(((3R,5R)-2-oxo-5-(trifluoromethyl)piperidin-3-yl)methyl)imidazo[1,2-b][1,2,4]triazin-6-yl)(4,4-difluorocyclohexyl)methyl)-1-ethyl-1H-pyrazole-5-carboxamide], the IC50 on IL-17A/A is less than 100 nM; at IL-17A/F, 100 to 1000 nM.

For `CCn1nccc1C(=O)N[C@H](c1cn2nc(C[C@H]3C[C@@H](C(F)(F)F)CNC3=O)c(C34COC(C3)C4)nc2n1)C1CCC(F)(F)CC1` [Compound 255, N—((S)-(3-(2-oxabicyclo[2.1.1]hexan-4-yl)-2-(((3R,5R)-2-oxo-5-(trifluoromethyl)piperidin-3-yl)methyl)imidazo[1,2-b][1,2,4]triazin-6-yl)(4,4-difluorocyclohexyl)methyl)-1-ethyl-1H-pyrazole-5-carboxamide], the IC50 is less than 100 nM at IL-17A/A and 100 to 1000 nM at IL-17A/F.

Take `CC(F)(F)c1nocc1C(=O)N[C@H](c1cn2nc(C[C@H]3C[C@@H](C(F)(F)F)CNC3=O)c(C3CCOCC3)nc2n1)C1CCC(F)(F)CC1` [Compound 260, N—((S)-(4,4-difluorocyclohexyl)(2-(((3R,5R)-2-oxo-5-(trifluoromethyl)piperidin-3-yl)methyl)-3-(tetrahydro-2H-pyran-4-yl)imidazo[1,2-b][1,2,4]triazin-6-yl)methyl)-3-(1,1-difluoroethyl)isoxazole-4-carboxamide]: the results for the IC50 at IL-17A/A and on IL-17A/F were less than 100 nM and 100 to 1000 nM, respectively.

For the origin of these results see patent publication US20260226068A1, “IMIDAZOTRIAZINE IL-17A MODULATORS AND USES THEREOF” (DICE ALPHA, INC., priority 2023, published 2026).
